Read-outs that look alike come from different tables or passages of the source.
Key:
[1] = thermogravimetric analysis (TGA); assay type: physicochemical
Experimental: It is known from the TGA curve that the weight loss between 30.5° C. and 150° C. corresponds to the content of crystal water in the chelated molecules.

[2] = solubility in water, aqueous DMSO and DMSO; assay type: physicochemical
[3] = background statement, cited from earlier work

Molecule: cerium sulfate chelated sulfur dioxide
- weight loss (crystal water) ([1]; between 30.5° C. and 150° C.): 11%
- product remained in the final residue (thermal stability) ([1]; final residue): 72.51%
- solubility in DMSO ([2]; DMSO): insoluble
- solubility in about 4% aqueous solution of DMSO ([2]; about 4% aqueous solution of dimethyl sulfoxide): soluble
- solubility in water ([2]; water, standing for a period of time or heating under water bath of about 45 to 50° C.): forms an emulsion with water, and can dissolve after standing for a period of time or heating

Molecule: O=S(=O)([O-])[O-].O=S(=O)([O-])[O-].[Ce+4] [Anhydrous cerium sulfate, anhydrous cerium sulfate]
- solubility in a solution of a certain acidity ([3]; acidic solution): highly soluble
- solubility in water ([3]; water): not highly soluble
